In patent US9284271B2, “Compounds for the treatment of neurodegenerative diseases” (Katholieke Universiteit Leuven, K.U. Leuven R&D, priority 2010, dated 2016):

The compounds below were run on M17-TAU P301L cells (assay: Tau-induced toxicity experiment: LDH leakage of retinoic acid incubated M17-TAU P301L cells). Conditions: Homo sapiens, Neuroblastoma cell, 168 h; reduction of LDH activity of retinoic acid incubated M17-TAU P301L neuroblastoma cells; 7 days incubation; Promega Cytotox 96 assay.
Type: cell-based
Description: A TAU expression plasmid was constructed by sub-cloning the cDNA of human TAU-P301L (encoding for TAU with proline 301 substituted by a leucine residue) into mammalian expression vector pcDNA3.1 resulting in plasmid pcDNA3.1-TAU P301L. Plasmids pcDNA3.1 and pcDNA3.1-TAU P301L were transfected to human neuroblastoma cells ([…]; ATCC No. CRL-2267) and independent clonal lines with the plasmids stably integrated into the genome were selected. […] Expression of the TAU P301L genes in the cell lines was confirmed by Western analysis.
In degenerated or dead cells lactate dehydrogenase (LDH) is leaked out of the cells into the extracellular environment due to a loss of plasma-membrane integrity. This principle was used to determine cytotoxicity by quantifying the level of leaked LDH into the growth medium.
The detailed method for determining TAU cytotoxicity was as follows: From appropriate precultures of M17-3.1 and M17-TAU(P301L) cells were seeded at 2500 cells/cm2 in Optimem Reduced Serum without phenol red (Gibco, Cat. 31985-047) supplemented with 1% fetal calf serum, 1 mM sodium pyruvate, 1× non-essential amino acids, 500 μg/ml G418 0.5× antibiotic/antimycotic. After 3 h of incubation at 37° C./5% CO2 1 volume of Optimem Reduced Serum (same as described above; except without fetal calf serum) supplemented with 2.5 μM retinoic acid (RA) was added. The cells were further incubated for 7 days. Subsequently, LDH activity was determined using Promega Cytotox 96 Non-Radioactive cytotoxicity assay, (Cat. G1780) according the supplier's instructions.
The M17-TAU P301L cell line made it possible to assess the ability of novel compounds to counteract TAU cytotoxicity. […] These measurements were used to calculate EC50 values of table 2.
Exemplary compounds of the present invention are shown in table 2, with their chemical name and their EC50 value (expressed in nM) as determined from example 75 in the Tau-induced toxicity experiment.

Structure (SMILES) | EC50
O=C(NCCc1c[nH]c2ccc(Cl)cc12)c1ccccc1-n1cccn1 [Cpd025, N-(2-(5-chloro-1H-indol-3-yl)ethyl)-2-(1H-pyrazol-1-yl)benzamide] | 760 nM
O=C(NCCc1c[nH]c2ccc(Cl)cc12)c1ccc(-c2cccc(F)c2)cc1 [Cpd039, N-(2-(5-chloro-1H-indol-3-yl)ethyl)-3′-fluorobiphenyl-4-carboxamide] | 139 nM
Cc1cccc(-c2cccc(C(=O)NCCc3c[nH]c4ccc(Cl)cc34)c2)c1 [Cpd019, N-(2-(5-chloro-1H-indol-3-yl)ethyl)-3′-methylbiphenyl-3-carboxamide] | 709 nM
O=C(NCCc1c[nH]c2ccc(Cl)cc12)c1ccccc1-c1ccccc1F [Cpd035, N-(2-(5-chloro-1H-indol-3-yl)ethyl)-2′-fluorobiphenyl-2-carboxamide] | 165 nM
Cc1cccc(C)c1-c1ccc(C(=O)NCCc2c[nH]c3ccc(Cl)cc23)cc1 [Cpd011, N-(2-(5-chloro-1H-indol-3-yl)ethyl)-2′,6′-dimethylbiphenyl-4-carboxamide] | 236 nM
Cc1ccc2[nH]cc(CCNC(=O)c3ccc(-c4ccccc4)cc3)c2c1 [Cpd004, N-(2-(5-methyl-1H-indol-3-yl)ethyl)biphenyl-4-carboxamide] | 238 nM
O=C(NCCc1c[nH]c2ccc(Cl)cc12)c1ccccc1-c1cccc(C(F)(F)F)c1 [Cpd064, N-(2-(5-chloro-1H-indol-3-yl)ethyl)-3′-(trifluoromethyl)biphenyl-2-carboxamide] | 418 nM
Cc1ccc(-c2ccccc2C(=O)NCCc2c[nH]c3ccc(Cl)cc23)cc1C [Cpd071, N-(2-(5-chloro-1H-indol-3-yl)ethyl)-3′,4′-dimethylbiphenyl-2-carboxamide] | 546 nM
O=C(NCCc1c[nH]c2ccc(Cl)cc12)c1cccc(-c2ccncc2)c1 [Cpd045, N-(2-(5-chloro-1H-indol-3-yl)ethyl)-3-(pyridin-4-yl)benzamide] | 327 nM
O=C(NCCc1c[nH]c2ccc(Cl)cc12)c1ccc(-c2ccc(O)cc2)cc1 [Cpd014, N-(2-(5-chloro-1H-indol-3-yl)ethyl)-4′-hydroxybiphenyl-4-carboxamide] | 57 nM
N#Cc1cccc(-c2ccccc2C(=O)NCCc2c[nH]c3ccc(Cl)cc23)c1 [Cpd048, N-(2-(5-chloro-1H-indol-3-yl)ethyl)-3′-cyanobiphenyl-2-carboxamide] | 232 nM
Cc1ccc(-c2cccc(C(=O)NCCc3c[nH]c4ccc(Cl)cc34)c2)cc1 [Cpd022, N-(2-(5-chloro-1H-indol-3-yl)ethyl)-4′-methylbiphenyl-3-carboxamide] | 354 nM
O=C(NCCc1c[nH]c2ccc(Cl)cc12)c1cccc(-c2ccccc2C(F)(F)F)c1 [Cpd065, N-(2-(5-chloro-1H-indol-3-yl)ethyl)-2′-(trifluoromethyl)biphenyl-3-carboxamide] | 89 nM
O=C(NCCc1c[nH]c2ccc(Cl)cc12)c1cccc(-c2cccc(Cl)c2)c1 [Cpd058, 3′-chloro-N-(2-(5-chloro-1H-indol-3-yl)ethyl)biphenyl-3-carboxamide] | 186 nM
O=C(NCCc1c[nH]c2ccc(Cl)cc12)c1ccccc1-c1cccc(Cl)c1 [Cpd057, 3′-chloro-N-(2-(5-chloro-1H-indol-3-yl)ethyl)biphenyl-2-carboxamide] | 159 nM
O=C(NCCc1c[nH]c2ccc(Cl)cc12)c1cccc(-c2ccccc2Cl)c1 [Cpd055, 2′-chloro-N-(2-(5-chloro-1H-indol-3-yl)ethyl)biphenyl-3-carboxamide] | 158 nM
O=C(NCCc1c[nH]c2ccc(Cl)cc12)c1cccc(-c2cccc(F)c2)c1 [Cpd047, N-(2-(5-chloro-1H-indol-3-yl)ethyl)-3′-fluorobiphenyl-3-carboxamide] | 408 nM
N#Cc1ccc(-c2ccc(C(=O)NCCc3c[nH]c4ccc(Cl)cc34)cc2)cc1 [Cpd053, N-(2-(5-chloro-1H-indol-3-yl)ethyl)-4′-cyanobiphenyl-4-carboxamide] | 85 nM
O=C(NCCc1c[nH]c2ccc(Cl)cc12)c1ccc(-c2ccccc2)cc1 [Cpd002, N-(2-(5-chloro-1H-indol-3-yl)ethyl)biphenyl-4-carboxamide] | 130 nM
O=C(NCCc1c[nH]c2ccc(Cl)cc12)c1ccc(-c2ccc(F)cc2)cc1 [Cpd042, N-(2-(5-chloro-1H-indol-3-yl)ethyl)-4′-fluorobiphenyl-4-carboxamide] | 228 nM

Structure (SMILES) | EC50
O=C(NCCc1c[nH]c2ccc(F)cc12)c1ccc(-c2ccccc2)cc1 [Cpd003, N-(2-(5-fluoro-1H-indol-3-yl)ethyl)biphenyl-4-carboxamide] | 448 nM
O=C(NCCc1c[nH]c2ccc(Cl)cc12)c1ccccc1-c1ccc(F)cc1 [Cpd040, N-(2-(5-chloro-1H-indol-3-yl)ethyl)-4′-fluorobiphenyl-2-carboxamide] | 208 nM
O=C(NCCc1c[nH]c2ccc(Cl)cc12)c1cccc(-c2ccc(C(F)(F)F)cc2)c1 [Cpd068, N-(2-(5-chloro-1H-indol-3-yl)ethyl)-4′-(trifluoromethyl)biphenyl-3-carboxamide] | 367 nM
O=C(NCCc1c[nH]c2ccc(Cl)cc12)c1ccccc1-c1cccc(F)c1 [Cpd038, N-(2-(5-chloro-1H-indol-3-yl)ethyl)-3′-fluorobiphenyl-2-carboxamide] | 226 nM
O=C(NCCc1c[nH]c2ccc(Cl)cc12)c1cccc(-c2ccc(O)cc2)c1 [Cpd013, N-(2-(5-chloro-1H-indol-3-yl)ethyl)-4′-hydroxybiphenyl-3-carboxamide] | 77 nM
O=C(NCCc1c[nH]c2ccc(Cl)cc12)c1ccc(-c2cccc(Cl)c2)cc1 [Cpd059, 3′-chloro-N-(2-(5-chloro-1H-indol-3-yl)ethyl)biphenyl-4-carboxamide] | 130 nM
O=C(NCCc1c[nH]c2ccc(Cl)cc12)c1ccc(-c2ccncc2)cc1 [Cpd046, N-(2-(5-chloro-1H-indol-3-yl)ethyl)-4-(pyridin-4-yl)benzamide] | 269 nM
O=C(NCCc1c[nH]c2ccc(Cl)cc12)c1cccc(-c2ccc(F)cc2)c1 [Cpd041, N-(2-(5-chloro-1H-indol-3-yl)ethyl)-4′-fluorobiphenyl-3-carboxamide] | 186 nM
O=C(NCCc1c[nH]c2ccc(Cl)cc12)c1ccc(-c2ccccc2F)cc1 [Cpd037, N-(2-(5-chloro-1H-indol-3-yl)ethyl)-2′-fluorobiphenyl-4-carboxamide] | 61 nM
O=C(NCCc1c[nH]c2ccc(Cl)cc12)c1ccc(-c2ccc(Cl)cc2)cc1 [Cpd061, 4′-chloro-N-(2-(5-chloro-1H-indol-3-yl)ethyl)biphenyl-4-carboxamide] | 111 nM
O=C(NCCc1c[nH]c2ccc(F)cc12)c1ccnc(N2CCOCC2)c1 [Cpd007, N-(2-(5-fluoro-1H-indol-3-yl)ethyl)-2-morpholinoisonicotinamide] | 1080 nM
N#Cc1cccc(-c2ccc(C(=O)NCCc3c[nH]c4ccc(Cl)cc34)cc2)c1 [Cpd050, N-(2-(5-chloro-1H-indol-3-yl)ethyl)-3′-cyanobiphenyl-4-carboxamide] | 24 nM
O=C(NCCc1c[nH]c2ccc(Cl)cc12)c1ccc(N2CCOCC2)nc1 [Cpd024, N-(2-(5-chloro-1H-indol-3-yl)ethyl)-6-morpholinonicotinamide] | 765 nM
COc1ccc(-c2ccccc2C(=O)NCCc2c[nH]c3ccc(Cl)cc23)cc1 [Cpd032, N-(2-(5-chloro-1H-indol-3-yl)ethyl)-4′-methoxybiphenyl-2-carboxamide] | 200 nM
Cc1ccc(-c2ccccc2C(=O)NCCc2c[nH]c3ccc(Cl)cc23)cc1 [Cpd021, N-(2-(5-chloro-1H-indol-3-yl)ethyl)-4′-methylbiphenyl-2-carboxamide] | 237 nM
O=C(NCCc1c[nH]c2ccc(Cl)cc12)c1ccccc1-c1ccc(Cl)cc1 [Cpd063, 4′-chloro-N-(2-(5-chloro-1H-indol-3-yl)ethyl)biphenyl-2-carboxamide] | 154 nM
O=C(NCCc1c[nH]c2ccc(Cl)cc12)c1cccc(-c2ccccc2F)c1 [Cpd036, N-(2-(5-chloro-1H-indol-3-yl)ethyl)-2′-fluorobiphenyl-3-carboxamide] | 139 nM
O=C(NCCc1c[nH]c2ccc(Cl)cc12)c1ccnc(N2CCOCC2)c1 [Cpd006, N-(2-(5-chloro-1H-indol-3-yl)ethyl)-2-morpholinoisonicotinamide] | 876 nM
O=C(NCCc1c[nH]c2ccc(Cl)cc12)c1cccc(-c2ccccc2)c1 [Cpd010, N-(2-(5-chloro-1H-indol-3-yl)ethyl)biphenyl-3-carboxamide] | 187 nM
